Data reported in ChEMBL document CHEMBL1124023, “Analgesic dipeptide derivatives. 4. Linear and cyclic analogues of the analgesic compounds arginyl-2-[(o-nitrophenyl)sulfenyl]tryptophan and lysyl-2-[(o-nitrophenyl)sulfenyl]tryptophan” (1988).

Columns and labels:
Assay type in all cases: functional
[1] = test system: Mus musculus; experiment: Analgesic activity (0.5 ug icv) tested after 30min, in mice tail-flick test
[2] = test system: Mus musculus; experiment: Analgesic activity (0.5 ug icv) tested after 5min, in mice tail-flick test
[3] = test system: Mus musculus; experiment: Analgesic activity (0.5 ug icv) tested after 60min, in mice tail-flick test
[4] = test system: Mus musculus; experiment: Analgesic activity (5 ug icv) tested after 30min, in mice tail-flick test
[5] = test system: Mus musculus; experiment: Analgesic activity (5 ug icv) tested after 5min, in mice tail-flick test
[6] = test system: Mus musculus; experiment: Analgesic activity (5 ug icv) tested after 60min, in mice tail-flick test
[7] = test system: Mus musculus; experiment: Analgesic activity (0.5 ug icv) tested after 5 min in mice tail-flick test
[8] = test system: Mus musculus; experiment: Analgesic activity (2.5 ug icv) tested after 30min, in mice tail-flick test
[9] = test system: Mus musculus; experiment: Analgesic activity (2.5 ug icv) tested after 5min, in mice tail-flick test
[10] = test system: Mus musculus; experiment: Analgesic activity (2.5 ug icv) tested after 60min, in mice tail-flick test
[11] = test system: Mus musculus; experiment: Analgesic activity (0.5 ug icv) tested after 30 min in mice tail-flick test
[12] = test system: Mus musculus; experiment: Analgesic activity (0.5 ug icv) tested after 60 min in mice tail-flick test
[13] = test system: Mus musculus; experiment: Analgesic activity (6.25 ug icv) tested after 30min, in mice tail-flick test
[14] = test system: Mus musculus; experiment: Analgesic activity (6.25 ug icv) tested after 5min, in mice tail-flick test
[15] = test system: Mus musculus; experiment: Analgesic activity (1 ug icv) tested after 30min, in mice tail-flick test
[16] = test system: Mus musculus; experiment: Analgesic activity (1 ug icv) tested after 5min, in mice tail-flick test
[17] = test system: Mus musculus; experiment: Analgesic activity (1 ug icv) tested after 60min, in mice tail-flick test
[18] = test system: Mus musculus; experiment: Analgesic activity (3.125 ug icv) tested after 60min, in mice tail-flick test
[19] = test system: Mus musculus; experiment: Analgesic activity (6.25 ug icv) tested after 60min, in mice tail-flick test
[20] = test system: Mus musculus; experiment: Analgesic activity (3.125 ug icv) tested after 30min, in mice tail-flick test
[21] = test system: Mus musculus; experiment: Analgesic activity (3.125 ug icv) tested after 5min, in mice tail-flick test
[22] = test system: Mus musculus; experiment: Analgesic activity (12.5 ug icv) tested after 30min, in mice tail-flick test
[23] = test system: Mus musculus; experiment: Analgesic activity (12.5 ug icv) tested after 5min, in mice tail-flick test
[24] = test system: Mus musculus; experiment: Analgesic activity (12.5 ug icv) tested after 60min, in mice tail-flick test
[25] = test system: Mus musculus; experiment: Analgesic activity (25 ug icv) tested after 30min, in mice tail-flick test
[26] = test system: Mus musculus; experiment: Analgesic activity (25 ug icv) tested after 5min, in mice tail-flick test
[27] = test system: Mus musculus; experiment: Analgesic activity (25 ug icv) tested after 60min, in mice tail-flick test

COC(=O)[C@H](Cc1cn(Sc2ccccc2[N+](=O)[O-])c2ccccc12)NC(=O)[C@@H](N)CCCN=C(N)N
Change in reaction time [1]: 52%
Change in reaction time [2]: 120%
Change in reaction time [3]: 22%

COC(=O)[C@H](Cc1cn(Sc2ccccc2[N+](=O)[O-])c2ccccc12)NC(=O)[C@@H](N)CCCCN
Change in reaction time [1]: 50%
Change in reaction time [2]: 98%
Change in reaction time [3]: 20%

COC(=O)[C@H](CCCCN)NC(=O)[C@@H](N)Cc1cn(Sc2ccccc2[N+](=O)[O-])c2ccccc12
Change in reaction time [1]: 76%
Change in reaction time [2]: 138%
Change in reaction time [3]: 33%

COC(=O)[C@@H](CCCN=C(N)N)NC(=O)[C@@H](N)Cc1cn(Sc2ccccc2[N+](=O)[O-])c2ccccc12.Cl
Change in reaction time [4]: 88%
Change in reaction time [5]: 97%
Change in reaction time [6]: 30%
Change in reaction time [1]: 23%
Change in reaction time [7]: 18%
Change in reaction time [3]: 9%
Change in reaction time [8]: 18%
Change in reaction time [9]: 20%
Change in reaction time [10]: 9%

COC(=O)[C@H](CCCN=C(N)N)NC(=O)[C@@H](N)Cc1cn(Sc2ccccc2[N+](=O)[O-])c2ccccc12.Cl
Change in reaction time [11]: 63%
Change in reaction time [7]: 113%
Change in reaction time [12]: 20%

COC(=O)[C@H](CCCN=C(N)N)NC(=O)[C@H](N)Cc1cn(Sc2ccccc2[N+](=O)[O-])c2ccccc12.Cl
Change in reaction time [1]: 26%
Change in reaction time [2]: 30%
Change in reaction time [3]: 23%
Change in reaction time [8]: 41%
Change in reaction time [9]: 125%
Change in reaction time [10]: 20%

COC(=O)[C@@H](CCCN=C(N)N)NC(=O)[C@H](N)Cc1cn(Sc2ccccc2[N+](=O)[O-])c2ccccc12.Cl
Change in reaction time [4]: 42%
Change in reaction time [5]: 34%
Change in reaction time [6]: 29%
Change in reaction time [1]: 10%
Change in reaction time [2]: 6%
Change in reaction time [3]: -2%
Change in reaction time [8]: 3%
Change in reaction time [9]: 16%
Change in reaction time [10]: -2%

NC(N)=NCCC[C@@H](NC(=O)[C@H](N)Cc1ccc(O)cc1)C(=O)O
Change in reaction time [13]: 68%
Change in reaction time [14]: 102%
Change in reaction time [15]: 5%
Change in reaction time [16]: 10%
Change in reaction time [17]: -2%
Change in reaction time [18]: 15%
Change in reaction time [19]: 10%
Change in reaction time [20]: 34%
Change in reaction time [21]: 79%

Cl.N=C(N)NCCCC1NC(=O)[C@H](Cc2cn(Sc3ccccc3[N+](=O)[O-])c3ccccc23)NC1=O (stereo in doubt)
Change in reaction time [1]: 23%
Change in reaction time [2]: 35%
Change in reaction time [3]: 15%

NC(N)=NCCC[C@H](NC(=O)[C@@H](N)Cc1ccc(O)cc1)C(=O)O [KYOTORPHIN]
Change in reaction time [22]: 1%
Change in reaction time [23]: 18%
Change in reaction time [24]: 6%
Change in reaction time [25]: 31%
Change in reaction time [26]: 98%
Change in reaction time [27]: 10%
